Measured values taken from PubChem BioAssay AID1224915.

System: MDA-MB-231 antiproliferation
Test: PubChem AID 1224915

`COc1cc(-c2nn(CCN3CCC(N(C)C)CC3)c3ncnc(N)c23)ccc1NC(=O)OC(C)(C)C` gave an EC50 of 9 nM.
